The record followed here is patent publication US20250144050A1, “AMINOTHIOL-CONJUGATES, COMPOSITIONS, AND METHODS OF USE THEREOF” (THE BURLINGTON HC RESEARCH GROUP, INC., priority 2021, published 2025).

The subject of one data set is MDA-MB-231 cells. Kind of data set: Trypan Blue cell count after 48 hour exposure. The data set is classed as cell-based, human. To be noted: read-out: Average Growth Inhibitory Dose 50% [EC50], Breast CA (MDA-MB-231). The method, then: (§1) To evaluate the anticancer activity of 4-arm star polyethylene glycol conjugated to WR-1065 (4SP65), the anticancer efficacy of 4SP65 was determined in some of the same cell lines used by NIH/NCI, and the methodology used was the same as is used by the NCI to evaluate chemotherapeutic agents currently in use (O'Connor et al., “Characterization of the p53 Tumor Suppressor Pathway in Cell Lines of the National Cancer Institute Anticancer Drug Screen and Correlations With the Growth-Inhibitory Potency of 123 Anticancer Agents,” Cancer Res. 57 (19): 4285-300 (1997), which is hereby incorporated by reference in its entirety). Testing of 6 cancer types was completed: (i) breast cancer (MDA-MB-231 cells), (ii) lung cancer (A549), (iii) prostate cancer cell line (LNCaP), (iv) myelogenous leukemia (HL60 cells), (v) ovarian cancer (SK-OV-3), and (vi) prostate cancer (DU-145).
(§2) Each cell line was grown in medium as recommended by the ATCC or as presented in the literature for that cell line. All cells were cultured in a water jacket incubator at 36-37° C. and in the presence of 5% CO2. To ensure optimal growth and viability, all cells were grown on plates coated with FNC (In Vitrogen). Cells were refed with growth medium twice weekly until they had reached 60 to 70% confluence. At this point, the medium was replaced with growth medium supplemented with 4SP65 at doses ranging from 0 to up to 300 micromolar. Cells were allowed to grow in the presence of this supplemented medium for 48 hours, and then they were removed by trypsinization, stained with Trypan Blue and counted in a hemocytometer. Three to four replicates for each dose group per experiment were performed. The percentage cell death was determined by comparing the average number of surviving cells exposed to 4SP65 versus the average number of surviving sham exposed cells.

The next data set deals with LNCaP. Kind of data set: Trypan Blue cell count after 48 hour exposure. The data set is classed as cell-based, human. To be noted: read-out: Average Growth Inhibitory Dose 50% [EC50], Prostate cancer cell line (LNCaP). The method, then:
as §1, §2

The next data set concerns DU-145. Kind of data set: Trypan Blue cell count after 48 hour exposure. The data set is classed as cell-based, human. To be noted: read-out: Average Growth Inhibitory Dose 50% [EC50], Prostate CA (DU-145). The method, then:
as §1, §2

Another data set has as its system A549. Kind of data set: Trypan Blue cell count after 48 hour exposure. To be noted: read-out: Average Growth Inhibitory Dose 50% [EC50], Lung CA (A549). The data set is classed as cell-based, human. On the procedure:
as §1, §2

The subject of a further data set is HL60 cells. Kind of data set: Trypan Blue cell count after 48 hour exposure. The data set is classed as cell-based, human. To be noted: read-out: Average Growth Inhibitory Dose 50% [EC50], Myelogenous Leukemia (HL60). On the procedure:
as §1, §2

A further data set relates to SK-OV-3. Kind of data set: Trypan Blue cell count after 48 hour exposure. The data set is classed as cell-based, human. To be noted: read-out: Average Growth Inhibitory Dose 50% [EC50], Ovarian CA (SK-OV-3). On the procedure:
as §1, §2

For data set [1], the system named is TOV21G ovarian cancer cells. The data set is classed as cell-based.
Protocol: (§5) Trypan Blue exclusion was applied as a complementary confirmation probe for cell death.
(§6) Statistical comparisons of differences in individual dose-response metrics between individual/paired drug treatments and various cell lines were conducted using the Student's t-test, with P-values <0.05 considered significant.
(§7) Relative cell growth inhibition values for differing levels each drug alone and in combination were input into SynergyFinder to generated dose-response curves for each drug alone, to produce a dose-response matrix, to visualize the distribution of areas of differing degrees of synergism in a 2-dimension heatmap and 3-dimension volcano plot, and to calculate average and maximum synergy scores in selected human cancer cell lines. […] Synergy scores <10 means that the interaction between two drugs was likely to be antagonistic; scores from −10 to 10 means the interaction between two drugs was likely to be additive; and scores >10 means the interaction between two drugs was likely to be synergistic.
Data set [2] has as its system HMESO-1 malignant mesothelioma cells. The data set is classed as cell-based.
Protocol: as §5, §6, §7
The subject of another data set is NCI-H460 NSCLC cells. In kind it is cell-based.
In data set [3] the test system is PPM-Mill malignant mesothelioma cells. In kind it is cell-based.
Protocol: as §5, §6, §7
Data set [4] has as its system SKOV3 ovarian cancer cells. The data set is classed as cell-based.
Protocol: as §5, §6, §7
Another data set deals with A549 NSCLC cells. To be noted: 48 h; for GI50 / IC50 / LC99 / TGI: each drug alone.
The test system of another data set is HCC38 cells. Kind of data set: CyQUANT cell viability assay, 48-hour exposure. The data set is classed as cell-based, human. On the procedure:
(§3) After drug treatments, fluorescence readings from 96-well plates were obtained using the CyQUANT dye and compared to standard curves for each cell line to determine cell viability. […] Trypan blue exclusion was used to estimate cell numbers in a few pilot experiments and was thereafter applied to confirm cell death.
A series of experiments was conducted to assess the relative efficacy of 4SP65, 1LP65, and amifostine as single agents in the same human cancer cell lines. First, the effectiveness of 4SP65 was tested against 15 cancer cell lines derived from seven tissues. […] The effectiveness of 0 to ≤500 μM amifostine was tested in sets of cancer cell lines reported to have either medium, high, or no expression of alkaline phosphatase.
Trans. R Soc. Lond. […] Using cell numbers based on fluorescence measurements and standard curves [time zero, (Tz), control growth, (C), and test growth in the presence of drug at five or more concentration levels (Ti)], the percentage growth was calculated at each drug concentration level. The percentage of growth inhibition was calculated as follows:
(§4) The LC50/99 was calculated using Equation 2=−50 and Eq. 2=−99, respectively. […] For NHMECs, the relationships between drug exposure levels and fluorescence units were used to define dose-response metrics. The selectivity index (SI) values for individual drug treatments were calculated as IC50 levels in NHMECs divided by the IC50 values in cancer cell lines.

The next data set deals with PC3 cells. Kind of data set: CyQUANT cell viability assay, 48-hour exposure. In kind it is cell-based. To be noted: Homo sapiens, PC-3. The method, then:
as §3
A series of experiments was conducted to assess the relative efficacy of 4SP65, 1LP65, and amifostine as single agents in the same human cancer cell lines. First, the effectiveness of 4SP65 was tested against 15 cancer cell lines derived from seven tissues. […]
Trans. […] Using cell numbers based on fluorescence measurements and standard curves [time zero, (Tz), control growth, (C), and test growth in the presence of drug at five or more concentration levels (Ti)], the percentage growth was calculated at each drug concentration level. The percentage of growth inhibition was calculated as follows:
as §4

[5] abbreviates: NCI-H460, each drug alone, 48 h.
[6] abbreviates: PPM-Mill, each drug alone, 48 h.

Read-outs that look alike come from different tables or passages of the source. A value given as a limit tells only on which side of the number the result lay.

One may read the EC50 as the midpoint of the concentration-response curve. One may read the CC50 as the concentration at which the toxic effect on the cells reaches its halfway point. A low value points to greater toxicity to the cells. What is called GI50 is the concentration that inhibits growth by half. A higher GI50 goes with less potent growth inhibition. Broadly, the IC50 is the point on the concentration scale where inhibition reaches its midpoint. The TGI is the concentration at which net growth stops. A higher TGI goes with lower sensitivity of the cells.

Protocol for A549 NSCLC cells: as §5, §6, §7
Protocol for NCI-H460 NSCLC cells: as §5, §6, §7

Take 4-star PEG-S-S-WR1065 [4SP65]: the concentration for a half-maximal effect (EC50) was found to be 4.5 µM in the data set on MDA-MB-231 cells; 9.5 µM in the data set with LNCaP; 6.7 µM in the data set on DU-145; 15 µM in the data set with A549; 3 µM in the data set on HL60 cells; 5 µM in the data set on SK-OV-3. Moreover, the CC50 in data set [1] stood at 2.7 ± 0.1 µM; in data set [2], 7 ± 0.1 µM; in the data set with NCI-H460 NSCLC cells, 17.6 ± 0.5 µM; in [3], 16.2 ± 3.2 µM; in data set [4], 9.7 ± 0.5 µM. Moreover, the “LC99, amount of each drug in combination” value in data set [1] (TOV21G, 4SP65-cisplatin combined, 48 h) came out at 0.95 µM; in the data set with A549 NSCLC cells (4SP65-cisplatin combined) it was 8 µM. For the same compound, the GI50 in data set [1] (TOV21G, each drug alone, 48 h) is 0.93 ± 0.37 µM; in [2] (HMESO-1, each drug alone, 48 h), 2 ± 0.3 µM; in the data set with NCI-H460 NSCLC cells (setting [5]), 12.3 ± 1.1 µM; in data set [3] (setting [6]) it was 8.4 ± 1.5 µM; in [4] (SKOV3, each drug alone, 48 h) it was 4.3 ± 1 µM; in the data set with A549 NSCLC cells (cisplatin series), 5.4 ± 2.5 µM. In addition, the GI50 with A549 NSCLC cells (gefitinib series) came to 6 ± 0.6 µM. Moreover, the concentration for half-maximal inhibition (IC50) was 1.2 ± 0.3 µM in data set [1] (TOV21G, each drug alone, 48 h); 4.7 ± 0.2 µM in data set [2] (HMESO-1, each drug alone, 48 h); 13.3 ± 1 µM with NCI-H460 NSCLC cells (setting [5]); 10 ± 1.9 µM in data set [3] (setting [6]); 5.2 ± 1 µM in data set [4] (SKOV3, each drug alone, 48 h); 6.8 ± 1.3 µM in the data set on A549 NSCLC cells (cisplatin series). In the data set with A549 NSCLC cells (gefitinib series), this compound registered an IC50 of 7.4 ± 0.7 µM. The LC99 in [1] (TOV21G, each drug alone, 48 h) is 3.0 µM; in [2] (HMESO-1, each drug alone, 48 h), 12.4 ± 0.1 µM; in the data set with NCI-H460 NSCLC cells (setting [5]), 18.2 ± 0.4 µM; in data set [3] (setting [6]) it was 17.6 ± 3.5 µM; in data set [4] (SKOV3, each drug alone, 48 h), 10.0 ± 0.8 µM; in the data set with A549 NSCLC cells (cisplatin series), 14.9 ± 3.8 µM. The LC99 with A549 NSCLC cells (gefitinib series) worked out at 12.3 ± 3.8 µM. In addition, the TGI in data set [1] (TOV21G, each drug alone, 48 h) is 2.0 ± 0.4 µM; in data set [2] (HMESO-1, each drug alone, 48 h), 4.3 ± 0.2 µM; with NCI-H460 NSCLC cells (setting [5]), 16.9 ± 0.6 µM; in [3] (setting [6]), 14.1 ± 3.3 µM; in [4] (SKOV3, each drug alone, 48 h), 7.3 ± 0.8 µM; with A549 NSCLC cells (cisplatin series), 8.3 ± 1.5 µM. In the data set on A549 NSCLC cells (gefitinib series), the total growth inhibition concentration (TGI) came to 11.3 ± 1.5 µM. In the data set with NCI-H460 NSCLC cells (NCI-H460, drug alone vs in 4SP65-cisplatin combination), the “Fold increase in efficacy at GI50” value is given as 36 fold. Moreover, the “fold more effective as cytostatic agent than PRIMA-1/PRIMA-1met (GI50)” value in data set [4] (TP53-null SKOV3 cells) is on record as 16 fold. Besides, in the data set with HCC38 cells (HCC38 cells), the “Relative potency compared to amifostine at IC50” value is 67 fold. Moreover, the selectivity index with HCC38 cells (IC50 of 76 in most sensitive NHMEC strain / IC50 in HCC38) was > 19.
`COCCOCCOCCOCCOCCOCCSSCCNCCCN` [1LP65, m-PEG6-S-S-WR1065] gave a 50% growth inhibitory concentration (GI50) in the data set with PC3 cells of 22.9 µM.
